The supplement of paper PMC10733146

Columns and labels:
Experiment in all cases: viability relative to DMSO control (fraction); higher = less drug effect (more viable cells)
Settings in all cases: 48 h
[1] = test system: primary ALL patient cells (S048)
How it was run: (§1)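 Compounds were pre-plated at five concentrations, one well each, in 384-well plates, and primary mononuclear tumour cells were plated on them at 4 × 10^4 cells per well. The cells, fresh or cryopreserved, had been Ficoll-isolated from blood or bone marrow or taken from processed lymph node. After 48 h at 37 °C and 5% CO2 in RPMI-1640 with penicillin/streptomycin, L-glutamine and human serum, viability was read as CellTiter-Glo luminescence relative to the median of 16 inner DMSO wells.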

[2] = test system: primary ALL patient cells (S088)
How it was run: as §1

[3] = test system: primary AML patient cells (S006)
How it was run: as §1

[4] = test system: primary AML patient cells (S007)
How it was run: as §1

[5] = test system: primary AML patient cells (S011)
How it was run: as §1

[6] = test system: primary AML patient cells (S012)
How it was run: as §1

[7] = test system: primary AML patient cells (S019)
How it was run: as §1

[8] = test system: primary AML patient cells (S056)
How it was run: as §1

[9] = test system: primary AML patient cells (S079)
How it was run: as §1

[10] = test system: primary AML patient cells (S085)
How it was run: as §1

[11] = test system: primary CLL patient cells (S031)
How it was run: as §1

[12] = test system: primary DLBCL patient cells (S049)
How it was run: as §1

[13] = test system: primary DLBCL patient cells (S076)
How it was run: as §1

[14] = test system: primary FL patient cells (S022)
How it was run: as §1

[15] = test system: primary FL patient cells (S087)
How it was run: as §1

[16] = test system: primary MCL patient cells (S041)
How it was run: as §1

[17] = test system: primary MCL patient cells (S063)
How it was run: as §1

[18] = test system: primary T-NHL patient cells (S058)
How it was run: as §1

SMILES: Nc1cccc2c1CN(C1CCC(=O)NC1=O)C2=O (stereo not given) [Lenalidomide]
- viability ([1]; 0.008 µM): 0.895
- viability ([1]; 0.04 µM): 0.751
- viability ([1]; 0.2 µM): 0.609
- viability ([1]; 1 µM): 0.548
- viability ([1]; 5 µM): 0.488
- viability ([2]; 0.008 µM): 1.07
- viability ([2]; 0.04 µM): 1.05
- viability ([2]; 0.2 µM): 0.976
- viability ([2]; 1 µM): 0.933
- viability ([2]; 5 µM): 0.904
- viability ([3]; 0.008 µM): 0.847
- viability ([3]; 0.04 µM): 0.602
- viability ([3]; 0.2 µM): 0.463
- viability ([3]; 1 µM): 0.633
- viability ([3]; 5 µM): 0.372
- viability ([4]; 0.008 µM): 0.801
- viability ([4]; 0.04 µM): 0.386
- viability ([4]; 0.2 µM): 0.204
- viability ([4]; 1 µM): 0.188
- viability ([4]; 5 µM): 0.152
- viability ([5]; 0.008 µM): 0.811
- viability ([5]; 0.04 µM): 0.644
- viability ([5]; 0.2 µM): 0.488
- viability ([5]; 1 µM): 0.496
- viability ([5]; 5 µM): 0.461
- viability ([6]; 0.008 µM): 0.913
- viability ([6]; 0.04 µM): 0.956
- viability ([6]; 0.2 µM): 0.874
- viability ([6]; 1 µM): 0.946
- viability ([6]; 5 µM): 0.981
- viability ([7]; 0.008 µM): 1.07
- viability ([7]; 0.04 µM): 0.828
- viability ([7]; 0.2 µM): 0.761
- viability ([7]; 1 µM): 0.863
- viability ([7]; 5 µM): 0.71
- viability ([8]; 0.008 µM): 1.04
- viability ([8]; 0.04 µM): 1.24
- viability ([8]; 0.2 µM): 0.961
- viability ([8]; 1 µM): 0.98
- viability ([8]; 5 µM): 0.84
- viability ([9]; 0.008 µM): 1.02
- viability ([9]; 0.04 µM): 1.02
- viability ([9]; 0.2 µM): 1.08
- viability ([9]; 1 µM): 1.08
- viability ([9]; 5 µM): 1.08
- viability ([10]; 0.008 µM): 0.956
- viability ([10]; 0.04 µM): 0.688
- viability ([10]; 0.2 µM): 0.572
- viability ([10]; 1 µM): 0.524
- viability ([10]; 5 µM): 0.529
- viability ([11]; 0.008 µM): 1.09
- viability ([11]; 0.04 µM): 1.08
- viability ([11]; 0.2 µM): 1.08
- viability ([11]; 1 µM): 1.04
- viability ([11]; 5 µM): 1.01
- viability ([12]; 0.008 µM): 0.962
- viability ([12]; 0.04 µM): 1.09
- viability ([12]; 0.2 µM): 0.905
- viability ([12]; 1 µM): 0.943
- viability ([12]; 5 µM): 0.974
- viability ([13]; 0.008 µM): 0.847
- viability ([13]; 0.04 µM): 1.11
- viability ([13]; 0.2 µM): 0.749
- viability ([13]; 1 µM): 0.992
- viability ([13]; 5 µM): 1.06
- viability ([14]; 0.008 µM): 0.956
- viability ([14]; 0.04 µM): 0.99
- viability ([14]; 0.2 µM): 0.97
- viability ([14]; 1 µM): 1
- viability ([14]; 5 µM): 1.05
- viability ([15]; 0.008 µM): 1
- viability ([15]; 0.04 µM): 0.963
- viability ([15]; 0.2 µM): 0.926
- viability ([15]; 1 µM): 0.956
- viability ([15]; 5 µM): 0.87
- viability ([16]; 0.008 µM): 1.01
- viability ([16]; 0.04 µM): 0.929
- viability ([16]; 0.2 µM): 0.888
- viability ([16]; 1 µM): 0.953
- viability ([16]; 5 µM): 0.863
- viability ([17]; 0.008 µM): 1.14
- viability ([17]; 0.04 µM): 1.09
- viability ([17]; 0.2 µM): 1.08
- viability ([17]; 1 µM): 1.11
- viability ([17]; 5 µM): 1.11
- viability ([18]; 0.008 µM): 0.915
- viability ([18]; 0.04 µM): 1.17
- viability ([18]; 0.2 µM): 0.862
- viability ([18]; 1 µM): 1.14
- viability ([18]; 5 µM): 0.91
